This note sets out measurements from ChEMBL document CHEMBL5346865, “Male contraceptive development: A medicinal chemistry perspective” (Eur J Med Chem, 2022).

Series [1] is described as follows: Inhibition of sperm motility in human Spermatozoa assessed as remaining progressive sperm motility relative to control. The series is classed as functional.
Series [2] can be described thus: Inhibition of sperm motility in human Spermatozoa incubated for 1 to 2 hrs by computer assisted sperm analysis. The series is classed as functional, cell-based.
Series [3] in a line: Half life in cynomolgus monkey at 1 mg/kg, iv administered as single infusion dose. Type of series: ADME, organism-based, Macaca fascicularis. The following applies: in vivo.
For series [4], the species on record is Mus musculus. As to the kind of experiment: Contraceptive effect in mouse model of contraception. The series is classed as functional.

Where only a bound is given, the exact number is not on record here.

By IC50 is commonly meant the concentration needed to halve the response being measured. The term half-life denotes the time in which the quantity being followed falls by half. As to `COC(=O)NNc1nc(Nc2ccc(NC(C)=O)c(O)c2)nc(SCC(=O)O)n1`, the Activity in series [1] is on record as under 20%. The molecule further displayed an IC50 in series [2] of 200 µM. This molecule also gave a half-life in series [3] of under 12 min.
`Cc1ccc(C2=CC(C)(C)Oc3ccc(-c4ccc(-c5ccc(C(=O)[O-])cc5)[nH]4)cc32)cc1.[Na+]` returned an Activity in series [4] of over 99%.
